The source of these data is article PMC3382824, “Antioxidative Characteristics of Anisomeles indica Extract and Inhibitory Effect of Ovatodiolide on Melanogenesis” (2012).

For this assay, the target named is mushroom tyrosinase. Description: spectrophotometric dopachrome assay (L-DOPA substrate, […] nm). In kind it is biochemical.

What is called IC50 is the concentration at which inhibition is half-maximal. Regarding `C=C1C(=O)OC2C=C(C)CC3C=C(CCC=C(C)CCC12)C(=O)O3` (stereo not shown) [ovatodiolide], half-maximal inhibition (IC50) required 253 µM.
